Several values for one entry are separate records, joined by “and”; a condition that tells them apart may be missing. Equal entries are not always repeated.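 Method: 48-hour compound exposure of cells in 96-well plates, five concentrations, linear interpolation of endpoints. TGI marks complete inhibition of growth.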
Experiments:
Experiment in all cases: NCI anticancer screen, dose series, 48 h
UACC-62 melanoma = tested on: UACC-62 melanoma
OVCAR-8 ovarian = tested on: OVCAR-8 ovarian
HOP-18 NSCLC = tested on: HOP-18 NSCLC
XF 498 CNS = tested on: XF 498 CNS
DLD-1 colon = tested on: DLD-1 colon
LXFL 529 NSCLC = tested on: LXFL 529 NSCLC
M19-MEL melanoma = tested on: M19-MEL melanoma
KM20L2 colon = tested on: KM20L2 colon
DMS 114 small cell lung = tested on: DMS 114 small cell lung
DMS 273 small cell lung = tested on: DMS 273 small cell lung
SNB-78 CNS = tested on: SNB-78 CNS
RXF-631 renal = tested on: RXF-631 renal

Cn1c(=O)c2c(nc(N/N=C3/SCC(=O)N3Cc3ccccc3)n2C)n(C)c1=O
TGI (UACC-62 melanoma): > 100 µM | TGI (OVCAR-8 ovarian): > 100 µM

COC1OC(C(=O)O)C2OC(C)(C)OC12 (stereo unspecified)
TGI (UACC-62 melanoma): > 100 µM | TGI (OVCAR-8 ovarian): > 100 µM

CSc1nc(C)c2c(n1)N(c1ccc(Cl)cc1)CC2
TGI (UACC-62 melanoma): > 100 µM | TGI (OVCAR-8 ovarian): > 100 µM

NC(N)=NCCCC(NC(=O)c1c2ccccc2nc2ccccc12)C(=O)O (stereo unspecified)
TGI (UACC-62 melanoma): > 100 µM | TGI (OVCAR-8 ovarian): > 100 µM

O=C(c1ccccc1)c1cc(Cl)ccc1NCn1nnc2ccccc21
TGI (UACC-62 melanoma): > 100 µM | TGI (HOP-18 NSCLC): > 100 µM | TGI (XF 498 CNS): > 100 µM | TGI (DLD-1 colon): > 100 µM | TGI (OVCAR-8 ovarian): > 100 µM | TGI (LXFL 529 NSCLC): > 100 µM | TGI (M19-MEL melanoma): > 100 µM | TGI (KM20L2 colon): > 100 µM | TGI (DMS 114 small cell lung): > 100 µM | TGI (DMS 273 small cell lung): > 100 µM

Cc1ccc2nc(C(=O)O)c(=O)[nH]c2c1
TGI (UACC-62 melanoma): > 100 µM | TGI (OVCAR-8 ovarian): > 100 µM

COc1ccc(C23OCC(Cc4cc(OC)c(OC)cc42)C3CO)cc1OC (stereo unspecified)
TGI (UACC-62 melanoma): > 100 µM

C=CCNC1=C2C[C@@H](C)C[C@@H](OC)[C@H](OC(=O)CCN(C)C)[C@H](C)/C=C(\C)[C@@H](OC(N)=O)[C@H](OC)/C=C\C=C(/C)C(=O)NC(=CC1=O)C2=O
TGI (UACC-62 melanoma): 11.9 µM | TGI (OVCAR-8 ovarian): 48 µM

Cc1ccc(-n2cc(-c3ccc(Cl)cc3)c3c(=N)n(N)cnc32)cc1
TGI (UACC-62 melanoma): 26.4 µM | TGI (OVCAR-8 ovarian): 29.9 µM

CC[C@@]12CCC(=S)N(CCSc3ccccc3)[C@@H]1c1c(n(S(=O)(=O)c3ccc(OC)cc3)c3ccccc13)CC2
TGI (UACC-62 melanoma): > 100 µM | TGI (OVCAR-8 ovarian): > 100 µM

CCc1cc2c(c3c1CCCC3=O)CC1(C2)Cc2cc(CC)c3c(c2C1)C(=O)CCC3
TGI (OVCAR-8 ovarian): > 100 µM

Cc1cc(C)nc(NS(=O)(=O)c2ccc(Nc3c4ccccc4nc4ccc(C(=O)Nc5ccc(S(=O)(=O)N=C(N)N)cc5)cc34)cc2)n1
TGI (UACC-62 melanoma): > 100 µM | TGI (OVCAR-8 ovarian): > 100 µM

C=CCN1C(=O)CC(=O)N(NC2=NNC3(C(=O)N2)c2ccccc2-c2ccccc23)C1=S
TGI (UACC-62 melanoma): > 100 µM | TGI (OVCAR-8 ovarian): > 100 µM

COc1ccc2c(c1)CC[C@@H]1C2CC[C@]2(C)C(=C=CP(=O)(O)O)CCC12 (stereo partly specified)
TGI (UACC-62 melanoma): > 100 µM | TGI (OVCAR-8 ovarian): > 100 µM

COC(=O)c1ccccc1C1CN=NC12Cc1c(C)ccc(C)c1C2=O (stereo unspecified)
TGI (UACC-62 melanoma): > 100 µM | TGI (OVCAR-8 ovarian): > 100 µM

O=C1c2ccccc2C(=O)c2sc(Nc3cc(Cl)ccc3Cl)nc21
TGI (UACC-62 melanoma): 6.27 µM | TGI (OVCAR-8 ovarian): 14.2 µM

N#Cc1c(N)nc(Sc2ccccc2N)c(C#N)c1-c1ccccc1
TGI (UACC-62 melanoma): 26.6 µM | TGI (OVCAR-8 ovarian): 75 µM

CC(C)=CCc1c2c(c(O)c3c(=O)c4c(oc13)-c1ccc(O)cc1OC4C=C(C)C)C=CC(C)(C)O2 (stereo unspecified)
TGI (UACC-62 melanoma): 27.4 µM | TGI (OVCAR-8 ovarian): 28.8 µM

c1cc2c(cc1[C@@H]1OC[C@@H]3[C@H]1CO[C@H]3c1ccc3c(c1)OCO3)OCO2
TGI (UACC-62 melanoma): > 100 µM | TGI (OVCAR-8 ovarian): > 100 µM

CC(C)=CCCC1(C)C2COC(=O)C21 (stereo unspecified)
TGI (UACC-62 melanoma): > 100 µM

CC1CCCN1CCCOC(=O)c1ccc(OC2C=CCCC2)cc1 (stereo unspecified)
TGI (UACC-62 melanoma): > 100 µM | TGI (OVCAR-8 ovarian): > 100 µM

CC[C@]1(Cc2ccc(OC)c(OC)c2)C=[N+]([O-])O[C@H](OC2CCCC2(c2ccccc2)c2ccccc2)[C@@H]1OC(=O)C(C)(C)C (stereo partly specified)
TGI (UACC-62 melanoma): 17.4 µM

CCCCCCCCCCCCC1N=C(N)N2CCCC2=C1C(=O)OC (stereo unspecified)
TGI (UACC-62 melanoma): 3.36 µM | TGI (OVCAR-8 ovarian): 3.37 µM

COc1ccc(/C(CC2OC(=O)c3ccccc32)=N\NC(N)=O)cc1 (stereo unspecified)
TGI (UACC-62 melanoma): > 100 µM | TGI (OVCAR-8 ovarian): > 100 µM

Cc1cc2occ(S(=O)(=O)NC(=O)Nc3ccc(Cl)cc3)c(=O)c2c(=O)o1
TGI (UACC-62 melanoma): > 100 µM | TGI (OVCAR-8 ovarian): > 100 µM

CCOC(=O)C1CCC(=O)N1C(=O)c1ccc(Cl)cc1 (stereo unspecified)
TGI (UACC-62 melanoma): > 100 µM | TGI (OVCAR-8 ovarian): > 100 µM

S=c1[nH]nc(CCCCCCCCc2n[nH]c(=S)o2)o1
TGI (OVCAR-8 ovarian): > 100 µM

CN(C)C(=O)Oc1ccc(C(=S)Nc2ccccc2)cc1
TGI (UACC-62 melanoma): > 100 µM | TGI (OVCAR-8 ovarian): 64 µM

O=S(=O)(O)c1cc(O)c(N=Nc2ccc3ccccc3c2O)c2ccccc12
TGI (UACC-62 melanoma): 42.3 µM

CC(CC=O)Nc1nn2c(=O)c3ccccc3nc2s1 (stereo unspecified)
TGI (UACC-62 melanoma): > 100 µM | TGI (OVCAR-8 ovarian): > 100 µM

O=C(NCc1ccccc1Cl)c1c(O)c2ccccc2[nH]c1=O
TGI (OVCAR-8 ovarian): > 100 µM

CCOC(=O)c1cn(CC)c2ccc3c(c2c1=O)S(=O)(=O)C=C3
TGI (UACC-62 melanoma): > 100 µM | TGI (OVCAR-8 ovarian): > 100 µM

CC1=CCN(c2ccccn2)OC1c1ccccc1 (stereo unspecified)
TGI (UACC-62 melanoma): > 100 µM | TGI (HOP-18 NSCLC): > 100 µM | TGI (XF 498 CNS): > 100 µM | TGI (DLD-1 colon): > 100 µM | TGI (OVCAR-8 ovarian): > 100 µM | TGI (LXFL 529 NSCLC): > 100 µM | TGI (M19-MEL melanoma): > 100 µM | TGI (SNB-78 CNS): > 100 µM | TGI (RXF-631 renal): > 100 µM | TGI (KM20L2 colon): > 100 µM | TGI (DMS 114 small cell lung): > 100 µM | TGI (DMS 273 small cell lung): > 100 µM

COc1cccc(CCCNC(=O)Cc2ccccc2CO)c1
TGI (UACC-62 melanoma): > 100 µM | TGI (OVCAR-8 ovarian): > 100 µM

CCC(=C/[C@H](C)C/C=C/C(C)=C/[C@@H](C)C(=O)[C@@H](C)[C@H](O)[C@@H](C)CC)/C=C/[C@H]1CC=CC(=O)O1
TGI (UACC-62 melanoma): 0.00667 µM | TGI (OVCAR-8 ovarian): 2.79 µM and 11.3 µM

CSc1nc[nH]c1C(N)=S
TGI (UACC-62 melanoma): > 100 µM | TGI (OVCAR-8 ovarian): > 100 µM

CCOC(=O)c1c(-c2ccccc2)c(C)cn1C
TGI (UACC-62 melanoma): > 10 µM | TGI (OVCAR-8 ovarian): > 10 µM

C/C(CC(=O)Nc1cccc([N+](=O)[O-])c1)=N\NC(=O)C[n+]1ccccc1
TGI (UACC-62 melanoma): > 100 µM | TGI (XF 498 CNS): > 100 µM | TGI (DLD-1 colon): > 100 µM | TGI (OVCAR-8 ovarian): > 100 µM | TGI (LXFL 529 NSCLC): > 100 µM | TGI (M19-MEL melanoma): > 100 µM | TGI (SNB-78 CNS): > 100 µM | TGI (KM20L2 colon): > 100 µM | TGI (DMS 114 small cell lung): > 100 µM

C/C(Nc1ccc(Cl)cc1)=C1/CCOC1=O
TGI (UACC-62 melanoma): > 100 µM | TGI (OVCAR-8 ovarian): > 100 µM

COC(=O)[C@@H]1COC(=O)N1
TGI (UACC-62 melanoma): > 100 µM | TGI (OVCAR-8 ovarian): > 100 µM

O=c1[nH]c2ccc([N+](=O)[O-])cc2nc1/C(=N/Nc1ccccc1)C(O)c1ccco1 (stereo unspecified)
TGI (UACC-62 melanoma): > 100 µM | TGI (XF 498 CNS): > 100 µM | TGI (DLD-1 colon): > 100 µM | TGI (OVCAR-8 ovarian): > 100 µM | TGI (LXFL 529 NSCLC): > 100 µM | TGI (M19-MEL melanoma): > 100 µM | TGI (SNB-78 CNS): > 100 µM | TGI (KM20L2 colon): > 100 µM | TGI (DMS 114 small cell lung): > 100 µM | TGI (DMS 273 small cell lung): > 100 µM

CCOC(=O)C1C(c2ccc(OC)cc2)c2c([nH]n(-c3ccccc3)c2=O)CC1(C)O (stereo unspecified)
TGI (UACC-62 melanoma): > 100 µM | TGI (OVCAR-8 ovarian): > 100 µM

Cc1ccc(NCCN(C)C)c2c(=O)c3cc(O)ccc3sc12
TGI (UACC-62 melanoma): 9.78 µM | TGI (HOP-18 NSCLC): 15.3 µM | TGI (XF 498 CNS): 17.2 µM | TGI (DLD-1 colon): 19.9 µM | TGI (OVCAR-8 ovarian): 6.84 µM | TGI (LXFL 529 NSCLC): 21.7 µM | TGI (M19-MEL melanoma): 23.1 µM | TGI (SNB-78 CNS): 33.7 µM | TGI (KM20L2 colon): 22 µM | TGI (DMS 114 small cell lung): 28 µM | TGI (DMS 273 small cell lung): 15.9 µM
